Patent US20240058363A1 (Emyria, priority 2020, published 2024)

Experiments:
Assay type in all cases: in vivo, human
symptoms of stress = assay: DASS-21 stress score in patients treated with CBD only (clinical data registry); conditions: for DASS-21 Stress Score, Post 1-month follow-up Mean (Std. dev): mean days of treatment 47 (+/−23)
Source text: (§1) Detailed demographic information and validated standardised questionnaires were collected as part of routine care. Written informed consent to treatment was obtained from all patients, as well as additional consent to participate in Emyria's clinical data registry, data from participating patients were anonymised, aggregated, and analysed to establish clinical efficacy.
(§2) Clinically validated tools were used to monitor patients for management of symptoms, quality of life, physical/emotional functioning, and concomitant medication usage. Patients were asked about their cannabis history and initially pre-screened for any illicit cannabis use before commencing on medicinal cannabis treatment using the Cannabis Use Disorder Identification Test (CUDIT), a urine screen was performed to confirm negative result for cannabis in their urine before they commence treatment. After they commenced on medicinal cannabis treatment they were initially treated with low doses and monitored for safety and efficacy of treatment before dose escalation is considered.
(§3) Patients are excluded from treatment with medicinal cannabis if they: were pregnant or breast-feeding; have untreated heart disease, heart failure or arrhythmia; a history of severe psychiatric disorders; active suicidal ideation; a history of dependence on cannabis; a history of dependence or abuse of psychoactive substances; detectable urinary THC before commencement of medicinal cannabis.
(§4) A potentially eligible individual who met any of the following criteria will be excluded from participation if the following criteria is met: • 1. Clinically recorded cannabis drug addiction, or cannabis use disorder including individuals with scores 8 or more on the Cannabis Use Disorder Identification Test (CUDIT). • 2. Untreated cardiovascular disease, arrhythmias (other than well controlled atrial fibrillation), or severe heart failure. • 3. History of suicide attempts or suicidal ideation. • 4. History of psychotic episode, schizophrenia or other psychotic disorders.
(§5) Patients were assessed monthly by the clinical team (doctor and nurse) and a visit schedule protocol was followed for each patient. A full medical history was conducted at the initial visit, including a detailed history of the clinical indication (including duration symptoms), comorbidities mental and cardiac health conditions, previous procedures, medications and therapies tried. Patients were reviewed as per the Schedule of Assessments (FIG. 2). Cannabinoid dose and Adverse events were also recorded at each visit after treatment began and categorised as mild (no product change indicated), moderate (product change indicated), severe (product cessation indicated) or serious (life-threatening/medical emergency).
(§6) The doctors treating patients prescribed orally-based medicinal cannabis standardised products as per approval under the Therapeutic Goods Administration (TGA) through the Special Access Scheme (SAS) Category B and Authorised Prescriber (AP) scheme. The prescribing doctor will decide which product type including THC/CBD ratio and CBD only, based on TGA guidance documents (ie for pain THC/CBD type is generally prescribed) [see https://www.tga.gov.au/medicinal-cannabis-guidance-documents], but also will factor in patient's circumstances such as driving (then CBD only prescribed).
(§7) Treatment dosing by the prescribing doctor was in accordance with Emyria (Emerald Clinics) experience, well-tolerated with minimal side effects. Doctors reviewed patients after the 14 day (2 week), see the Schedule of Assessments (FIG. 2). Following the 2-week dosing review where a doctor may increase/decrease the dosage or change product type, patients were then seen regularly (generally monthly) as per the Schedule of Assessments (FIG. 2). Patients taking CBD only products were prescribed either oil or capsules. […]

symptoms of depression = assay: DASS-21 depression score in patients treated with CBD only (clinical data registry); conditions: for DASS-21 Depression Score, Post 1-month follow-up Mean (Std. dev): mean days of treatment 47 (+/−23)
Source text: as §1, §2, §3, §4, §5, §6, §7

symptoms of anxiety = assay: DASS-21 anxiety score in patients treated with CBD only (clinical data registry); conditions: for DASS-21 Anxiety Score, Post 1-month follow-up Mean (Std. dev): mean days of treatment 47 (+/−23)
Source text: as §1
Clinically validated tools were used to monitor patients for management of symptoms, quality of life, physical/emotional functioning, and concomitant medication usage. […] After they commenced on medicinal cannabis treatment they were initially treated with low doses and monitored for safety and efficacy of treatment before dose escalation is considered.
as §4
Patients were assessed monthly by the clinical team (doctor and nurse) and a visit schedule protocol was followed for each patient. A full medical history was conducted at the initial visit, including a detailed history of the clinical indication (including duration symptoms), comorbidities mental and cardiac health conditions, previous procedures, medications and therapies tried. Patients were reviewed as per the Schedule of Assessments (FIG. 2).
as §6
Doctors reviewed patients after the 14 day (2 week), see the Schedule of Assessments (FIG. 2). Following the 2-week dosing review where a doctor may increase/decrease the dosage or change product type, patients were then seen regularly (generally monthly) as per the Schedule of Assessments (FIG. 2). Patients taking CBD only products were prescribed either oil or capsules.

[1] = average treatment window of slightly under 13 days
[2] = dosage amounts between 50-200 mg per day
[3] = mean treatment horizon of 22 days
[4] = mean treatment period of 7 days
[5] = patients with subthreshold and clinically significant scores at baseline

With `C=C(C)C1CCC(C)=CC1c1c(O)cc(CCCCC)cc1O` (centres unmarked) [cannabidiol, 2-[3-methyl-6-(1-methylethenyl)-2-cyclohexen-1-yl]-5-pentyl-1,3-benzenediol] the “DASS-21 Stress Score, Post 1-month follow-up Mean (Std. dev)” value (shortened to “DASS-21 Stress Score … (Std. dev)”) (symptoms of stress; All (n = 146), initial mean 21.6 (9.5), p 0.000) was 16.2 (9.5), the “DASS-21 Stress Score … (Std. dev)” value (symptoms of stress; Mod to extreme (n = 79), initial mean 28.8 (6.2), p 0.000) was 20.5 (9.4) and the “Decrease in stress score” value (symptoms of stress; [1]) was −9.0. The “DASS-21 Stress Score … (Std. dev)” value (symptoms of stress; baseline category Extremely Severe 34+ (n = 18), initial mean 38.2 (2.4), p 0.000) was 21.7 (12.2), the “DASS-21 Stress Score … (Std. dev)” value (symptoms of stress; baseline category Mild 15-18 (n = 27), initial mean 16.9 (1.0), p 0.038) was 14.1 (6.5) and the “DASS-21 Stress Score … (Std. dev)” value (symptoms of stress; baseline category Moderate 19-25 (n = 27), initial mean 22.4 (1.8), p 0.002) was 17.2 (7.7). The “DASS-21 Stress Score … (Std. dev)” value (symptoms of stress; baseline category Normal 0-14 (n = 40), initial mean 10.6 (3.1), p 0.100) was 9.0 (6.0), the “DASS-21 Stress Score … (Std. dev)” value (symptoms of stress; baseline category Severe 26-33 (n = 34), initial mean 28.9 (1.9), p 0.000) was 22.6 (8.4) and the “Change in stress score from initial visit to first follow-up versus dosage (FIG. 7)” value (symptoms of stress; [2]) was “correlated with a higher value of change indicating less symptoms of anxiety, stress and/or depression”. The “Fall in stress score” value (symptoms of stress; [3]) was −5.8, the “Decline in stress score” value (symptoms of stress; [4]) was −16.0 and the “Mean DASS-21 stress score over the first six months (FIG. 16)” value (symptoms of stress; [5]) was “significant reduction over the 6-month period”. For the same compound, the “DASS-21 Depression Score, Post 1-month follow-up Mean (Std. dev)” value (“DASS-21 Depression Score … (Std. dev)” for short) (symptoms of depression; All (n = 146), initial mean 17.4 (9.6), p 0.000) was 12.8 (10.0), the “DASS-21 Depression Score … (Std. dev)” value (symptoms of depression; Mod to extreme (n = 92), initial mean 22.7 (8.0), p 0.000) was 16.4 (10.6) and the “Decrease in depression score” value (symptoms of depression; [1]) was −11.2. The “DASS-21 Depression Score … (Std. dev)” value (symptoms of depression; baseline category Extremely Severe 28+ (n = 28), initial mean 32.9 (5.2), p 0.000) was 21.4 (11.6), the “DASS-21 Depression Score … (Std. dev)” value (symptoms of depression; baseline category Mild 10-13 (n = 29), initial mean 10.9 (1.0), p 0.000) was 7.1 (4.6) and the “DASS-21 Depression Score … (Std. dev)” value (symptoms of depression; baseline category Moderate 14-20 (n = 49), initial mean 16.4 (2.2), p 0.002) was 12.8 (8.1). The “DASS-21 Depression Score … (Std. dev)” value (symptoms of depression; baseline category Normal 0-9 (n = 25), initial mean 5.5 (2.3), p 0.543) was 6.2 (4.8), the “DASS-21 Depression Score … (Std. dev)” value (symptoms of depression; baseline category Severe 21-27 (n = 15), initial mean 24.1 (1.6), p 0.089) was 18.8 (11.7) and the “Change in depression score from initial visit to first follow-up versus dosage (FIG. 8)” value (symptoms of depression; [2]) was “correlated with a higher value of change indicating less symptoms of anxiety, stress and/or depression”. The “Fall in depression score” value (symptoms of depression; [3]) was −3.9, the “Decline in depression score” value (symptoms of depression; [4]) was −17.5 and the “Mean DASS-21 depression score over the first six months (FIG. 15)” value (symptoms of depression; [5]) was “significant reduction over the 6-month period”. For the same compound, the “DASS-21 Anxiety Score, Post 1-month follow-up Mean (Std. dev)” value (“DASS-21 Anxiety Score … (Std. dev)” below) (symptoms of anxiety; All (n = 146), initial mean 13.7 (8.7), p 0.000) was 9.1 (6.8), the “DASS-21 Anxiety Score … (Std. dev)” value (symptoms of anxiety; Mod to extreme (n = 100), initial mean 17.7 (7.5), p 0.000) was 11.0 (7.1) and the “Decrease in anxiety score” value (symptoms of anxiety; [1]) was −6.0. The “DASS-21 Anxiety Score … (Std. dev)” value (symptoms of anxiety; baseline category Mild 8-9 (n = 13), initial mean 8.0 (0.0), p 0.291) was 7.1 (3.0), the “DASS-21 Anxiety Score … (Std. dev)” value (symptoms of anxiety; baseline category Moderate 10-14 (n = 50), initial mean 12.1 (1.7), p 0.000) was 8.8 (5.1) and the “DASS-21 Anxiety Score … (Std. dev)” value (symptoms of anxiety; baseline category Normal 0-7 (n = 33), initial mean 3.9 (1.7), p 0.667) was 4.2 (3.7). The “DASS-21 Anxiety Score … (Std. dev)” value (symptoms of anxiety; baseline category Severe 15-19 (n = 16), initial mean 17.0 (1.0), p 0.009) was 10.9 (7.9), the “Change in anxiety score from initial visit to first follow-up versus dosage (FIG. 6)” value (symptoms of anxiety; [2]) was “correlated with a higher value of change indicating less symptoms of anxiety, stress and/or depression” and the “Fall in anxiety score” value (symptoms of anxiety; [3]) was −5.7. For the same compound, the “Decline in anxiety score” value (symptoms of anxiety; [4]) was −10.5 and the “Mean DASS-21 anxiety score over the first six months (FIG. 14)” value (symptoms of anxiety; [5]) was “significant reduction over the 6-month period”.
